For one compound, Kd and IC50 results are on record in BindingDB's records for doi:10.1021/acs.jmedchem.3c00203 (University of Oxford, 2023).

Some results are limits rather than exact numbers.

For assay [1], the target named is T1, Isocitrate dehydrogenase [NADP] cytoplasmic (Homo sapiens, UniProt O75874). Kind of assay: Binding affinity to human recombinant IDH1 expressed in Escherichia coli BL21(DE3) pLysS cells assessed as dissociation constant by non-denaturing mass spectroscopic analysis.
Target sequence in this assay (O75874 whole entry): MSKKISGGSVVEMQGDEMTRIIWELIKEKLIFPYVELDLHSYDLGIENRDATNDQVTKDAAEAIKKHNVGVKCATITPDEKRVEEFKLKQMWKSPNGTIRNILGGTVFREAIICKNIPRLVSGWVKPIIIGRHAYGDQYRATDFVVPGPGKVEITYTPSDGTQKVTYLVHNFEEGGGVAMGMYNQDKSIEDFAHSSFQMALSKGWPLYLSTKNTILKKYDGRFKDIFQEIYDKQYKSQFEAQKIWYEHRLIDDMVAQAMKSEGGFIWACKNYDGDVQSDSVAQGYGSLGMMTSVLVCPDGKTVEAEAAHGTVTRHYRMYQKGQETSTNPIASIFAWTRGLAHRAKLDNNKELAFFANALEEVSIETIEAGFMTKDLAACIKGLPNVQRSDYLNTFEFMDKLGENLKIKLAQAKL
Assay [2] concerns the target T1, Isocitrate dehydrogenase [NADP] cytoplasmic. Kind of assay: Inhibition of recombinant wildtype IDH1 (unknown origin) expressed in Escherichia coli BL21(DE3) pLysS cells using DL-isocitrste as substrate assessed as DL-isocitrate conversion to 2OG incubated for 60 mins in presence of NADPH by spectrophotometric analysis.
Target sequence in this assay (O75874 whole entry): as above
Assay [3] shares this target. Nature of the assay: Binding affinity to recombinant IDH1 R132H mutant (unknown origin) expressed in Escherichia coli BL21(DE3) pLysS cells assessed as dissociation constant by NMR analysis.
Target sequence in this assay (O75874 2-414 R132H limits assumed): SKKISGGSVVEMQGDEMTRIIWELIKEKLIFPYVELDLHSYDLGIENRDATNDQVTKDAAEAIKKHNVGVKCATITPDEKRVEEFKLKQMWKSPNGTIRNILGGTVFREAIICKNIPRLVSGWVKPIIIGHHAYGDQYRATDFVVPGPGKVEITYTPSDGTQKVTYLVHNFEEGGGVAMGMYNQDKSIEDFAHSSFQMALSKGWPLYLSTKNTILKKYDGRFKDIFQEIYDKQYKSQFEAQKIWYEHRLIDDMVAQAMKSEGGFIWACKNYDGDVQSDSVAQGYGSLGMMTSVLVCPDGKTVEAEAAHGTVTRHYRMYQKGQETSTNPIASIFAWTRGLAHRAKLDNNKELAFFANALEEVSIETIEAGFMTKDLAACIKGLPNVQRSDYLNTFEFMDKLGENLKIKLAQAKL
Assay [4] has the same target. Nature of the assay: Inhibition of recombinant IDH1 R132H mutant (unknown origin) expressed in Escherichia coli BL21(DE3) pLysS cells using 2OG as substrate assessed as 2OG conversion to 2HG incubated for 60 mins in presence of NADPH by spectrophotometric analysis.
Target sequence in this assay (O75874 2-414 R132H limits assumed): as above
Assay [5] has the same target. Nature of the assay: Binding affinity to recombinant wildtype IDH1 (unknown origin) expressed in Escherichia coli BL21(DE3) pLysS cells assessed as dissociation constant by ITC assay. (In ITC the heat of successive injections is recorded.)
Target sequence in this assay (O75874 whole entry): as the sequence (O75874 whole entry) above
Assay [6] shares this target. Kind of assay: Binding affinity to recombinant IDH1 R132H mutant (unknown origin) expressed in Escherichia coli BL21(DE3) pLysS cells assessed as dissociation constant by ITC assay.
Target sequence in this assay (O75874 2-414 R132H limits assumed): as the sequence (O75874 2-414 R132H limits assumed) above
Assay [7] has the same target. Nature of the assay: Binding affinity to human recombinant IDH1 R132H mutant expressed in Escherichia coli BL21(DE3) pLysS cells assessed as dissociation constant by non-denaturing mass spectroscopic analysis.
Target sequence in this assay (O75874 2-414 R132H limits assumed): as above
For assay [8] the target is unchanged. Nature of the assay: Binding affinity to recombinant wildtype IDH1 (unknown origin) expressed in Escherichia coli BL21(DE3) pLysS cells assessed as dissociation constant by NMR analysis.
Target sequence in this assay (O75874 whole entry): as the sequence (O75874 whole entry) above

As usually defined, the Kd is the free concentration of one partner at which half of the binding sites on the other are occupied at equilibrium, for simple one-to-one binding. The term IC50 denotes the point on the concentration scale where inhibition reaches its midpoint. On to `CC(=O)N1CCN(Cc2ccc([C@H](C)Nc3nccc(N4C(=O)OC[C@@H]4C(C)C)n3)cc2)CC1` [US8957068, 556], for which the Kd is 140 µM in assay [1]; 1.1 µM in assay [3]; > 400 µM in assay [5]; > 400 µM in assay [6]; 142 µM in assay [7]; 1.7 µM in assay [8]. Besides, the IC50 in assay [2] is 0.341 µM; in assay [4] it was 0.0082 µM.
